Experiments:
Type in all cases: biochemical
Details in all cases: Table 8
Porcine Atria myofibrils = assay: Myofibril ATPase assay (PK/LDH NADH-coupled), atria myofibrils
Procedure: (§1) Myofibril ATPase Assay Procedure: BSA, ATP, NADH, PEP, and DTT solutions were thawed at room temperature, then transferred to ice. Pellet-frozen myofibrils were transferred with approximately twice the required volume into a sufficiently large tube and capped. Myofibrils were thawed by rolling in a water bath for approximately 15 min at room temperature and cooled on ice. Buffers A and B were prepared by adjusting volumes as necessary for required number of wells and stored on ice. 0.5 μL of the compounds to be assayed were added into wells. 25 μL of Buffer A was dispensed into the wells, followed by 25 μL of Buffer B. The wells were measured for absorbance at 340 nm, using a kinetic protocol in which the wells are read every 1.5-2 min for 75 min. Assay data analysis was performed using a python script that filtered the raw data to retain those points falling between a starting and ending time and between a maximum and minimum absorbance, then used the filtered time-domain 340 nm absorbance data in each well to calculate a slope via linear regression analysis in units of mAU/min. Compound slopes were normalized between 100% and 0% activity, where 100% represented the slope of wells containing only compound vehicle, and fit to a 4-parameter logistic model. In addition to the fit parameters, the EC25% is calculated, relative to the 100% normalized value. In the case of inhibitors, EC50% is also calculated, if available. Fit parameters, calculated effective concentrations, filtered raw data, and calculated slopes were exported, in addition to compound-specific graphs of normalized ATPase activity versus concentration in μM.

[1] = target: T1, Porcine Ventricle myofibrils (left ventricle of Yucatan minipigs) (Sus scrofa, UniProt P79293); assay: Myofibril ATPase assay (PK/LDH NADH-coupled), ventricle myofibrils
T1 construct: Myofibrils from porcine cardiac muscle was isolated from the left ventricle of Yucatan minipigs; tissue Exemplar Genetics; host or cells: left ventricle of Yucatan minipigs
Procedure: (§2) Myofibril ATPase assays are known in the art to be useful in evaluating small molecules for the treatment of HCM and other cardiac indications. Myosin ATPase activity is assessed by using a coupled reaction system, in which ADP generated by the myosin ATPase function is coupled to the disappearance of NADH through the pyruvate kinase/lactate dehydrogenase (PK-LDH) system. ATPase activity produces ADP, which is used as a substrate for PK to produce pyruvate and regenerate ATP. The pyruvate is then used as a substrate by LDH to oxidize NADH to NAD+. The rate of the reaction is monitored through the time-dependent disappearance of NADH using absorbance at 340 nm, which, when the couple system is in stoichiometric excess, is directly correlated to the ATPase activity of the myosin. Inhibition of ATPase activity by the assayed compounds is indicated by a reduced rate of NADH loss, relative to vehicle-treated controls, over the experimental time window. Rabbit Skeletal and Porcine Ventricle are the primary sources of myofibril material.
(§3) Materials: The following stock solutions and reagents were used in the Myofibril ATPase Assay:
(§4) Stock Solutions of pCa buffer. Combine PIPES, CaCl2), and EGTA solutions with water. Adjust pH to 7.0 and bring final volume to 100 mL.
(§5) Buffer A & Buffer B. Prepare buffers A and B according to the table below.
as §1
Cardiac Myofibril Isolation:
Myofibrils from porcine cardiac muscle was isolated from the left ventricle of Yucatan minipigs. Myofibrils were prepared using a method based upon those described in Herrmann et al. (1993) and summarized here. Minced tissue was homogenized for 50 sec with a Polytron homogenizer into 10 volumes (relative to weight in grams) of Isolation Buffer A (75 mM KCl, 10 mM Imidazole, 2 mM MgCl2, 2 mM EGTA, 1 mM NaN3, 1% v/v Triton X-100) supplemented with 4 mM Phosphocreatine, 1 mM ATP, 50 mM BDM, 1 mM DTT, 1 mM Benzamide HCl, 0.1 mM PMSF, 10 μM leupeptin, 5 μM pepstatin, and 10 mM EDTA. The myofibrils were recovered by centrifugation (Beckman Allegra 6R, 1200 g, 15 min) and resuspended in 10 volumes Isolation Buffer B (Buffer A above without supplemental reagents). The myofibrils were further homogenized described above and recovered by centrifugation for 7 mins. Cellular membranes and debris were removed by 3 washes in Isolation Buffer B, centrifuging each as before. […]

[2] = test system: Rabbit Skeletal myofibrils (rabbit psoas muscle); assay: Myofibril ATPase assay (PK/LDH NADH-coupled), skeletal myofibrils
Procedure: as §2, §3, §4, §5, §1
Skeletal Myofibril Isolation:
Myofibrils from various animals and tissue types were acquired from a variety of sources: rabbit psoas muscle was purchased from Pel-Freez Biologicals (Rogers, AR) and porcine cardiac muscle was purchased from Exemplar Genetics. All myofibrils were prepared using a method based upon those described in Herrmann et al. (1993) and summarized here. Minced tissue was homogenized for 50 sec with a Polytron homogenizer into 10 volumes (relative to weight in grams) of Isolation Buffer A (50 mM Tris, pH 8.0, 0.1 M potassium acetate, 5 mM KCl, 2 mM DTT, 5 mM EDTA, 0.5% v/v Triton X-100) supplemented with 0.1 mM PMSF, 10 μM leupeptin, 5 μM pepstatin, and 0.5 mM sodium azide. The myofibrils were recovered by centrifugation (Beckman Allegra 6R, 1200 g, 10 min) and resuspended in 10 volumes Isolation Buffer B (Buffer A above without protease inhibitors or sodium azide). The myofibrils were further homogenized as before and recovered by centrifugation. […]

T1 sequence (P79293 whole entry): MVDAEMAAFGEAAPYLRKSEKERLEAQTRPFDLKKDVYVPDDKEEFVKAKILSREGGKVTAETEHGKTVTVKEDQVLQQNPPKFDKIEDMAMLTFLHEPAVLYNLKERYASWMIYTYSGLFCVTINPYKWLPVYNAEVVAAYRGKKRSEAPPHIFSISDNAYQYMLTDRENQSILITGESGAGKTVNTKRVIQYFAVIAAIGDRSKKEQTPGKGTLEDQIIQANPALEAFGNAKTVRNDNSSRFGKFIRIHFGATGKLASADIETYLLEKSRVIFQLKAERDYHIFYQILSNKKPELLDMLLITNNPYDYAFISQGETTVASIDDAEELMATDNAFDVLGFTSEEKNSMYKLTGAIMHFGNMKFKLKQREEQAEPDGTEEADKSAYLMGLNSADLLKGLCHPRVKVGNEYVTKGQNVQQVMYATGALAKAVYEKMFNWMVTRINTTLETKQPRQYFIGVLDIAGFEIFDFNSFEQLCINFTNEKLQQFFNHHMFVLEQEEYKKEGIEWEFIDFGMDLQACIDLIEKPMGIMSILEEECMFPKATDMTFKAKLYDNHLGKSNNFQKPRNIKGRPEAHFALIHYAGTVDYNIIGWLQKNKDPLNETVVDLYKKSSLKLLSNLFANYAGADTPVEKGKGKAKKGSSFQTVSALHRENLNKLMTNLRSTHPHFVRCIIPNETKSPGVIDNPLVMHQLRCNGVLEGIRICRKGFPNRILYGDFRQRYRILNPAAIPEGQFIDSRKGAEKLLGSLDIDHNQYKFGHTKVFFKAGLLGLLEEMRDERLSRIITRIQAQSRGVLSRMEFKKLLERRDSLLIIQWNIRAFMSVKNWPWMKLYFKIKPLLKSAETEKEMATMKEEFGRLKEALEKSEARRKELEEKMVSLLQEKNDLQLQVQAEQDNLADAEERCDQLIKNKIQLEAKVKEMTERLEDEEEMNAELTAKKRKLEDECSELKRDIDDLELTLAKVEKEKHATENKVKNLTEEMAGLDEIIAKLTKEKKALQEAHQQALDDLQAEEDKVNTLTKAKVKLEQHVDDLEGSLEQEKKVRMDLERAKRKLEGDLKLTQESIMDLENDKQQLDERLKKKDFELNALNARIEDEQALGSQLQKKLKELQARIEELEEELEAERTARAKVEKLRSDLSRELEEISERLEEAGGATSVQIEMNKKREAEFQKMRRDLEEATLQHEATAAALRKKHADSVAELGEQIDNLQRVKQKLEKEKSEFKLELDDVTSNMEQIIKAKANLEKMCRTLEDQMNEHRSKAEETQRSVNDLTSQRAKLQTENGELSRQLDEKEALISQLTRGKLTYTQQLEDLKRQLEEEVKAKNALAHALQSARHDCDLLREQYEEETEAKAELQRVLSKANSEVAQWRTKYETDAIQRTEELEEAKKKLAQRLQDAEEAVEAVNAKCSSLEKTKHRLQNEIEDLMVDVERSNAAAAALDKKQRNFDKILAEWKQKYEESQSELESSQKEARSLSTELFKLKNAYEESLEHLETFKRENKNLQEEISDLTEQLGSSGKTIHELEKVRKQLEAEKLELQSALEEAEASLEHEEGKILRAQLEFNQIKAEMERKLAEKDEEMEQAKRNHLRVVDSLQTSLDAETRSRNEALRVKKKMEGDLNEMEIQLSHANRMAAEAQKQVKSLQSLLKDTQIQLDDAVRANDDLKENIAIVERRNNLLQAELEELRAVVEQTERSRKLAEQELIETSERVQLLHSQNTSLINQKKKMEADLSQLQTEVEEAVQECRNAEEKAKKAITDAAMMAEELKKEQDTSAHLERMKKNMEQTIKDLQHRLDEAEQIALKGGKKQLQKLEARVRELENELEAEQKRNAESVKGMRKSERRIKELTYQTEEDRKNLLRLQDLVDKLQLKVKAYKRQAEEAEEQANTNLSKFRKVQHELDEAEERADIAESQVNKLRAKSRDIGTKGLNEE

| Structure (SMILES) | Porcine Atria IC25 (Porcine Atria myofibrils) [nM] | Porcine Ventricle IC25 [1] [nM] | Rabbit Psoas IC25 [2] [nM] |
| --- | --- | --- | --- |
| C[C@@H](NC(=O)CN1Cc2c(ccc(F)c2F)NC1=O)c1ncc(F)cc1Cl [Compound B36] | 20 | 14.8 | 10.5 |
| C[C@H](NC(=O)CN1Cc2c(ccc(F)c2F)NC1=O)c1ncc(F)cc1Cl [Compound B37] | 280 | 490.1 | 384.4 |
| Cc1cc(F)cnc1[C@@H](C)NC(=O)CN1Cc2c(ccc(F)c2F)NC1=O [Compound B38] | 980 | 3820 | 10640 |
| Cc1cc(F)cnc1[C@H](C)NC(=O)CN1Cc2c(ccc(F)c2F)NC1=O [Compound B39] | 20 | 48.3 | 20.3 |
| C[C@@H](NC(=O)CN1Cc2cc(F)cc(Cl)c2NC1=O)c1ccc(C#N)cc1F [Compound B40] | 100000 | 17720 | 100000 |
| C[C@H](NC(=O)CN1Cc2cc(F)cc(Cl)c2NC1=O)c1ccc(C#N)cc1F [Compound B41] | 1740 | 1384 | 85.7 |
| C[C@@H](NC(=O)CN1Cc2c(F)cc(F)cc2NC1=O)c1ccc(C#N)cc1F [Compound B42] | 590 | 3177 | 745.5 |
| C[C@H](NC(=O)CN1Cc2c(F)cc(F)cc2NC1=O)c1ccc(C#N)cc1F [Compound B43] | 40 | 47.3 | 15.8 |
| C[C@@H](NC(=O)CN1Cc2cc(F)c(F)cc2NC1=O)c1ccc(C#N)cc1F [Compound B44] | 450 | 527.8 | 4901 |
| C[C@H](NC(=O)CN1Cc2cc(F)c(F)cc2NC1=O)c1ccc(C#N)cc1F [Compound B45, N-[(1S)-1-(4-cyano-2-fluorophenyl)ethyl]-2-(6,7-difluoro-2-oxo-1,4-dihydroquinazolin-3-yl)acetamide] | 20 | 45.7 | 11.5 |
| Cc1cnncc1[C@@H](C)NC(=O)CN1Cc2c(ccc(F)c2F)NC1=O [Compound B46] | 580 | 1847 | 660.1 |
| C[C@H](NC(=O)[C@H](CC1CC1)N1Cc2c(ccc(F)c2F)NC1=O)c1ccc(F)cc1F [Compound B48] | 100000 | 62100 | 12650 |
| C[C@@H](NC(=O)[C@@H](CC1CC1)N1Cc2c(ccc(F)c2F)NC1=O)c1ccc(F)cc1F [Compound B49] | 6510 | 45960 | 100000 |
| CC(C)C[C@@H](C(=O)N[C@@H](C)c1ncc(F)cc1F)N1Cc2c(ccc(F)c2F)NC1=O [Compound B50] | 100000 | 42560 | 100000 |
| CC(C)C[C@H](C(=O)N[C@H](C)c1ncc(F)cc1F)N1Cc2c(ccc(F)c2F)NC1=O [Compound B51] | 49070 | 100000 | 100000 |
